In paper PMC4501499 (MedChemComm, 2015):

What was measured:
rat UT-A1 = molecular target: T1, rat UT-A1 (Rattus norvegicus, UniProt Q62668); experiment: UT-A1 inhibition assay; type: cell-based; conditions: for UT inhibition activity (in words): text summary of urea transport inhibition (UT-A1 / UT-B, Table 1)
T1 sequence (Q62668 1-929): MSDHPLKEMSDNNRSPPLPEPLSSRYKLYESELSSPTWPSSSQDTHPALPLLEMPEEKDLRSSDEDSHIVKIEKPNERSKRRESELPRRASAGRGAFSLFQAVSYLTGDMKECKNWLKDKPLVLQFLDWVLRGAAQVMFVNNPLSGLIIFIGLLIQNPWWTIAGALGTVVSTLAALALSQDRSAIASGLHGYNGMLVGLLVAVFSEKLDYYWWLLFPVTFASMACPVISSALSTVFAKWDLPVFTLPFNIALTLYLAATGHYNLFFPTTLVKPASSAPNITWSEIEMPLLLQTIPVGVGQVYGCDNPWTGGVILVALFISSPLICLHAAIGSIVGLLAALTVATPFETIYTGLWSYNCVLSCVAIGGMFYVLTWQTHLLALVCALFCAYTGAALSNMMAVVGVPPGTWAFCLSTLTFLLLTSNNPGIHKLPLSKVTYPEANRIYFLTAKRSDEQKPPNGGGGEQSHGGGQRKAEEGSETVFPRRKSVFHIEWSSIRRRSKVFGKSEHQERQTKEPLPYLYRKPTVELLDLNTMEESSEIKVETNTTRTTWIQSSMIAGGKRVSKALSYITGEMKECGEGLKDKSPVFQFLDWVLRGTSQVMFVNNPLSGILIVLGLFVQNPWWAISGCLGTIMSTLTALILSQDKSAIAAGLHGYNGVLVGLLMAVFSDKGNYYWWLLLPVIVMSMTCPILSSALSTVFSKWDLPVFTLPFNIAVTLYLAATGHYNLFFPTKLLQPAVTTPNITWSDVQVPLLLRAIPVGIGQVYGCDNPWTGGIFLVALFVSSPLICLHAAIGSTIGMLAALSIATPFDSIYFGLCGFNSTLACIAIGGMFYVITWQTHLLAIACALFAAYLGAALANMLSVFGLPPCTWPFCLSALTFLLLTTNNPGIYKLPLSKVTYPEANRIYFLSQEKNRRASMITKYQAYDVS

[1] = in vitro microsomal stability with NADPH, LC/MS; conditions: rat liver microsomes
UT-B = molecular target: T2, UT-B (Rattus norvegicus, UniProt P97689); experiment: UT-B inhibition assay; type: cell-based; conditions: concentration-inhibition fit
T2 sequence (P97689 1-384): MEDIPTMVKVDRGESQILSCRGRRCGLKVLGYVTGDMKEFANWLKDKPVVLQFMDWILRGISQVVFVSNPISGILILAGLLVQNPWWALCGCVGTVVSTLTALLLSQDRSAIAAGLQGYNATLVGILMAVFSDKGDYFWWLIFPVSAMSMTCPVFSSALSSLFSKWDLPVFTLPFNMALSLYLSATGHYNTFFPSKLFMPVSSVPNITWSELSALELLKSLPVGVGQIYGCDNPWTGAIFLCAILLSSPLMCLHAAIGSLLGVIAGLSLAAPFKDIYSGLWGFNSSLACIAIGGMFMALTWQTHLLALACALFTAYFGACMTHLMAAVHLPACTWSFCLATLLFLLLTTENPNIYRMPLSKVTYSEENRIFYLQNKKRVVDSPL

Structure (SMILES) | UT inhibition activity (in words) (rat UT-A1) | [M+H-16] metabolite by LC/MS [1] | other results
CS(=O)(=O)Nc1ccc2c(c1)C(=O)c1cc(NS(C)(=O)=O)ccc1-2 [compound 9] | strong inhibition |  | 
CC(=O)Nc1ccc2c(c1)C(=O)c1cc(NC(C)=O)ccc1-2 [compound 3, 2,7-bisacetamido fluoren-9-one] |  | detected | Hill coefficient, UT-B (UT-B): 1.1; extent of UT-A1 inhibition at higher concentrations (rat UT-A1; higher concentrations): complete inhibition; reversibility of UT-A1 inhibition (rat UT-A1; incubation near IC50, then washing with PBS): complete reversibility; time to complete inhibition of UT-A1 (rat UT-A1; inhibition kinetics): ≤ 40 s; Hill coefficient, UT-A1 (rat UT-A1; rat UT-A1, concentration-inhibition fit): 0.9; inhibition mechanism (urea competition) (rat UT-A1; urea 80 to 1,600 mM, apparent IC50 independent of urea concentration): non-competitive
CC(=O)Nc1cccc(C(=O)c2cccc(NC(C)=O)c2)c1 [compound 22] |  | not detected | 
CS(=O)(=O)Nc1cccc(C(=O)c2cccc(NS(C)(=O)=O)c2)c1 [compound 24, bismethanesulfonamidobenzophenone] | inactive |  | 

The next lines start with results.

UT inhibition activity (in words) (rat UT-A1) | [M+H-16] metabolite by LC/MS [1] | Structure (SMILES) | other results
 | not detected | CC(=O)Nc1ccc2c(c1)C(=NO)c1cc(NC(C)=O)ccc1-2 [compound 17] | 
low activity |  | O=C(CO)Nc1ccc2c(c1)C(=O)c1cc(NC(=O)CO)ccc1-2 [compound 12] | 
much less active |  | O=C1c2cc(NC(=O)C(F)(F)F)ccc2-c2ccc(NC(=O)C(F)(F)F)cc21 [compound 7] | 
